Laboratory results from ChEMBL document CHEMBL1156531, “Designer enediynes generate DNA breaks, interstrand cross-links, or both, with concomitant changes in the regulation of DNA damage responses” (2007).
The source made the active and inactive calls. The rule behind the calls is not given here.

Experiments:
[1] = system: Bacillus amyloliquefaciens; assay: Induction of interstrand cross-link in BamH1-linearized pBR322 plasmid DNA assessed as amount of double-stranded DNA remaining at 13 nM after 4 hrs under anaerobic cell-free condition
[2] = system: Bacillus amyloliquefaciens; assay: Induction of interstrand cross-link in BamH1-linearized pBR322 plasmid DNA assessed as amount of double-stranded DNA remaining at 130 nM after 4 hrs under anaerobic cell-free condition
[3] = Induction of double-strand break in BamH1-linearized pBR322 plasmid DNA assessed as linear DNA under aerobic condition relative to C-1027; conditions: Bacillus amyloliquefaciens
[4] = system: Bacillus amyloliquefaciens; assay: Induction of interstrand cross-link in BamH1-linearized pBR322 plasmid DNA assessed as amount of double-stranded DNA remaining after denaturation relative to C-1027
[5] = system: BSC-1; assay: Induction of double-strand DNA break in SV40-infected african green monkey BSC1 cells assessed as amount of linear DNA at 8 nM after 4 hrs; format: cell-based; conditions: Betapolyomavirus macacae
[6] = system: BSC-1; assay: Induction of DNA interstand cross-link in SV40-infected african green monkey BSC1 cells assessed as amount of double-stranded DNA remaining after denaturation at 40 nM after 4 hrs; format: cell-based; conditions: Betapolyomavirus macacae
[7] = system: BSC-1; assay: Increase in DNA interstand cross-link in SV40-infected african green monkey BSC1 cells assessed as amount of double-stranded DNA remaining after denaturation at 200 nM after 4 hrs; format: cell-based; conditions: Betapolyomavirus macacae
[8] = system: HCT-116; assay: Induction of DNA interstand cross-link in human HCT116 cells after 4 hrs by comet assay; format: cell-based
[9] = system: HCT-116; assay: Induction of double-strand DNA break in human HCT116 cells after 4 hrs by comet assay; format: cell-based
[10] = biological target: T1, Serine/threonine-protein kinase Chk1 (Homo sapiens) (UniProt O14757); assay: Decrease in Chk1-Ser-345 phosphorylation in ataxia telangiectasia mutated and Rad3 related-deficient human HCT116 cells at 1 nM after 1 hr by Western blotting; format: cell-based; conditions: HCT-116
T1 sequence (whole entry): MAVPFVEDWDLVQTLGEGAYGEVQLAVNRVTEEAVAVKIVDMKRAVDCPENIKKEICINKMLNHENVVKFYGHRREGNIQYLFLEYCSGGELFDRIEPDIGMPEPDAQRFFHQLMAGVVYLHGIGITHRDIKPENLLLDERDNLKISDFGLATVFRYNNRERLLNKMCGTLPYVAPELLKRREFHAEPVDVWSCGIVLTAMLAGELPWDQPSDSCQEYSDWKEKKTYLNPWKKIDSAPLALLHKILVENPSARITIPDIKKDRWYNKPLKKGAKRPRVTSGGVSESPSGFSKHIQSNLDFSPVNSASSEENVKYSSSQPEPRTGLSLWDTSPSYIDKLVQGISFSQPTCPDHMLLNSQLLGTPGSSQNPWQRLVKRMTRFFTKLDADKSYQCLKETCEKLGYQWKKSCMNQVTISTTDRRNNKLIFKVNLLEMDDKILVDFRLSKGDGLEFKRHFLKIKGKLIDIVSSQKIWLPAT

[11] = system: HCT-116; assay: Ratio of IC50 for mock siRNA-treated human HCT116 cells to IC50 for siATR (ataxia telangiectasia mutated and Rad3 related)-treated human HCT116 cells after 3 days; format: functional
[12] = system: BSC-1; assay: Induction of double-strand DNA break in SV40-infected african green monkey BSC1 cells assessed as amount of linear DNA after 4 hrs; format: cell-based; conditions: Betapolyomavirus macacae
[13] = system: BSC-1; assay: Induction of DNA interstand cross-link in SV40-infected african green monkey BSC1 cells assessed as amount of double-stranded DNA remaining after denaturation after 4 hrs; format: cell-based; conditions: Betapolyomavirus macacae
[14] = biological target: T1, Serine/threonine-protein kinase Chk1 (Homo sapiens); assay: Decrease in Chk1-Ser-345 phosphorylation in ataxia telangiectasia mutated and Rad3 related-deficient human HCT116 cells at 3 nM after 1 hr by Western blotting; format: cell-based; conditions: HCT-116
[15] = system: BSC-1; assay: Induction of double-strand DNA break in SV40-infected african green monkey BSC1 cells assessed as amount of linear DNA at 10 uM after 4 hrs; format: cell-based; conditions: Betapolyomavirus macacae

Row | SMILES | Activity [1] | Activity [2] | Activity [3] | Activity [4] | Activity [5] | Activity [6] | Activity [7] | Activity [8] | Activity [9] | Activity [10] | Ratio IC50 [11] | Activity [12] | Activity [13] | Activity [14] | Activity [15]
1 | C=C1Oc2cc(OC)cc(C(=O)O[C@H]3COC(=O)C[C@H](N)c4cc(O)c(c(Cl)c4)O[C@@H]4C#C/C=C/3C#CC3=CC=C[C@@]34O[C@@H]3OC(C)(C)[C@@H](N(C)C)[C@@H](O)[C@H]3O)c2NC1=O | 13% | > 30% | 1% | 1% | 20% | Active | Active | Active | inactive | Active | 1.1 | – | – | – | –
2 | C=C1Oc2cc(OC)cc(C(=O)O[C@H]3COC(=O)C[C@H](N)c4ccc(c(Cl)c4)O[C@@H]4C#C/C=C/3C#CC3=CC=C[C@@]34O[C@@H]3OC(C)(C)[C@@H](N(C)C)[C@@H](O)[C@H]3O)c2NC1=O | – | – | 0.033% | – | – | – | – | – | – | – | – | – | – | – | –
3 | C=C1Oc2cc(OC)cc(C(=O)O[C@H]3COC(=O)C[C@H](N)c4ccc(c(O)c4)O[C@@H]4C#C/C=C/3C#CC3=CC=C[C@@]34O[C@@H]3OC(C)(C)[C@@H](N(C)C)[C@@H](O)[C@H]3O)c2NC1=O | – | – | 0.25% | < 0.003% | – | – | – | – | – | – | 1.3 | Dose-dependent effect | inactive | Active | –
4 | C=C1Oc2cc(O)cc(C(=O)O[C@H]3COC(=O)C[C@H](N)c4cc(O)c(c(Cl)c4)O[C@@H]4C#C/C=C/3C#CC3=CC=C[C@@]34O[C@@H]3OC(C)(C)[C@@H](N(C)C)[C@@H](O)[C@H]3O)c2NC1=O | – | – | 0.02% | 1% | – | – | Active | Active | inactive | – | 2.5 | – | – | – | inactive
